Experiments:
[1] = molecular target: T1, hα7-wt nAChR stably expressed in the GH4C1 cell line (Homo sapiens, UniProt P36544); test: Ca2+ flux imaging (FLIPR) of PAM activity with choline as agonist; format: cell-based; settings: efficacy relative to 100 μM choline alone (defined as 1); peak fluorescence, fluo-4AM; compounds tested 0.1 μM to 30 μM, efficacy criterion at 10 μM
T1 construct: expressed in transfected cells
T1 sequence (P36544 23-502): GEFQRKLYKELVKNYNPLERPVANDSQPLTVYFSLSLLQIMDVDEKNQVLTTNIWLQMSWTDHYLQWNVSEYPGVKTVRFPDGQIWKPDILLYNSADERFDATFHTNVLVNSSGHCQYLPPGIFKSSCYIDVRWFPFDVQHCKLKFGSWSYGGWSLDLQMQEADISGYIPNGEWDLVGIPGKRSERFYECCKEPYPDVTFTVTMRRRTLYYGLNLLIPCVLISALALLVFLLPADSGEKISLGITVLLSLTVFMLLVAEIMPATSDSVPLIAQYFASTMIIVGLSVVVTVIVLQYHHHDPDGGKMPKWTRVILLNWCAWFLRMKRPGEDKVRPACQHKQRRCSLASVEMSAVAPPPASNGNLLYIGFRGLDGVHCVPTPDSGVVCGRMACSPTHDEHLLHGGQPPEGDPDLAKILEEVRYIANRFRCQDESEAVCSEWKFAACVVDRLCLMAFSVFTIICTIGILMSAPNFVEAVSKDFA

Row | SMILES | Activity Range [1] | melting point
1 | COc1ccc(Nc2nc(-c3ccncc3)c(CO)s2)cc1 [Compound 122, 2-[(4-methoxyphenyl)amino]-4-(4-pyridinyl)-5-thiazolemethanol] | E (E denotes an efficacy from at least 4.5) | 126.2 to 126.8 °C
2 | COCc1sc(Nc2cc(Cl)ccc2Cl)nc1-c1ccncc1 [Compound 136] | E (E denotes an efficacy from at least 4.5) | 205.3 to 205.8 °C
3 | CNC(=O)Cc1sc(Nc2cc(Cl)ccc2Cl)nc1-c1ccncc1 [Compound 163] | E (E denotes an efficacy from at least 4.5) | 237.2 to 244 °C
4 | O=C(NCc1sc(Nc2cccc(C(F)(F)F)c2)nc1-c1cccnc1)c1ccccc1 [Compound 164] | E (E denotes an efficacy from at least 4.5) | 215.5 to 218.9 °C
5 | OCc1sc(Nc2cc(Cl)ccc2Cl)nc1-c1ccccc1 [int. 23] | D (D denotes an activity range from 3.0 till 4.5) | 172.8 to 175 °C
6 | CCOC(=O)Cc1sc(Nc2cc(Cl)ccc2Cl)nc1-c1ccncc1 [int. 30] | E (E denotes an efficacy from at least 4.5) | 156.8 to 163.5 °C
